Source: ChEMBL document CHEMBL3616401, “Thiophene-expanded guanosine analogues of Gemcitabine” (2015)

Experiments:
Format in all cases: functional
[1] = Growth inhibition of human LOXIMVI cells assessed as cell growth at 15 ug/ml; conditions: LOX IMVI, read-out: Activity
T47D = assay: Growth inhibition of human T47D cells assessed as cell growth at 15 ug/ml; conditions: read-out: Activity
NCI-H522 = assay: Growth inhibition of human NCI-H522 cells assessed as cell growth at 15 ug/ml; conditions: read-out: Activity
[2] = Growth inhibition of human MOLT4 cells assessed as cell growth at 15 ug/ml; conditions: MOLT-4, read-out: Activity

Compound `CC(C)OC(=O)[C@H](C)NP(=O)(OC[C@H]1O[C@@H](n2cnc3sc4c(=O)[nH]c(N)nc4c32)C(F)(F)[C@@H]1OP(=O)(N[C@@H](C)C(=O)OC(C)C)Oc1ccccc1)Oc1ccccc1` (some centres not stated) has a growth at 15 µg/mL [1] of 102%, a growth at 15 µg/mL (T47D) of 87.2% and a growth at 15 µg/mL (NCI-H522) of 77.7%. The growth at 15 µg/mL [2] was 109%.
Work on `Nc1nc2c(sc3ncn([C@@H]4O[C@H](CO)[C@@H](O)C4(F)F)c32)c(=O)[nH]1` yielded a growth at 15 µg/mL [1] of 25.6%, a growth at 15 µg/mL (T47D) of 10.5% and a growth at 15 µg/mL (NCI-H522) of 34%. The growth at 15 µg/mL [2] was 13.9%.
Work on `CC(C)OC(=O)[C@H](C)NP(=O)(OC[C@H]1O[C@@H](n2cnc3sc4c(=O)[nH]c(N)nc4c32)C(F)(F)[C@@H]1O)Oc1ccccc1` (some centres not stated) yielded a growth at 15 µg/mL [1] of 74.1%, a growth at 15 µg/mL (T47D) of 64.5% and a growth at 15 µg/mL (NCI-H522) of 65.6%. For the same compound, the growth at 15 µg/mL [2] was 94%.
